In assay [1] the test system is human tonsil T cells (responders) with irradiated human mononuclear stimulator cells; T-cell proliferation. In kind it is cell-based. Conditions: for inhibitory effect on T-cell proliferation: FIG. 3, tested at 125, 250 and 500 μM; for effectiveness in inhibiting responder T-cell proliferation: FIG. 2, tested at 50, 150, 250, 350, 500 and 750 μM; for Inhibition of T-cell Proliferation (%): peptides at 500 μM. An excerpt: The one-way MLR has been previously described (Kruisbeek et al., Current Protocols in Immunology, Proliferative Assays for T-Cell Function, '3.12.1-3.12.14 (1991), which is incorporated herein by reference). Specifically, human tonsil T cells were suspended at a concentration of 2−4×10^6 cells/ml in cell culture medium (RPMI), for use as responders. Stimulator cells were human mononuclear cells isolated from first Ficoll separation of peripheral blood (buffy coat) and were suspended at a concentration of 2−4×10^6 cells/ml in cell culture medium (RPMI). The stimulator cells were inactivated before use by treatment with 3,000-5,000 rad of ionizing radiation from γ137Cs source. One hundred μl of each cell suspension were combined in each well of a 96-well plate in the absence or presence of varying concentrations of test polypeptides, as detailed below. Cell proliferation was assessed after 72 hours, by 3H-thymidine addition to each well (1 μCi/well, 67 Ci/mmol) with incubation for six hours. The cells were harvested using a PHD Cell Harvester (Cambridge Technology, Inc., Watertown, Mass.); the incorporated 3H was assessed using a liquid scintillation counter (Packard Instrument, Inc., Donner's Grove, Ill.).
In FIGS. 2 and 3, the Y-axis values are mean percentage ±SE of proliferation of responders. “2s” refers to irradiated buffy coat cells, and “2r” refers to T-lymphocytes derived from tonsil. “2s2r” refers to non-treated, mixed lymphocyte sample, which is the positive control (represented by dashed line). Inhibition of proliferation by anti-CD11a antibody (Pharmingen, anti-human CD11a) was used as a control for inhibition of the LFA-1/ICAM-1 interaction. These polypeptides are derived from the human LFA-1 β (CD18) subunit.

For assay [2], the target named is intracellular adhesion molecule (ICAM-1; CD54) (UniProt P05362 28-532, limits assumed). Put plainly: cell-based or functional assay.
Setting [3] is: linear D-peptides (*3), minus value = peptide activated T-lymphocytes.

Where two headings read alike, the source gives them in different places. Bridge positions count the residues as written; N and C are the ends. Square brackets hold non-standard residues; d marks the D form. Ends that are not written are not given here. Peptide text beside a SMILES is read from it. Pen = CC(C)(S)[C@H](N)C(=O)O

intracellular adhesion molecule (ICAM-1; CD54), sequence (P05362 28-532 limits assumed): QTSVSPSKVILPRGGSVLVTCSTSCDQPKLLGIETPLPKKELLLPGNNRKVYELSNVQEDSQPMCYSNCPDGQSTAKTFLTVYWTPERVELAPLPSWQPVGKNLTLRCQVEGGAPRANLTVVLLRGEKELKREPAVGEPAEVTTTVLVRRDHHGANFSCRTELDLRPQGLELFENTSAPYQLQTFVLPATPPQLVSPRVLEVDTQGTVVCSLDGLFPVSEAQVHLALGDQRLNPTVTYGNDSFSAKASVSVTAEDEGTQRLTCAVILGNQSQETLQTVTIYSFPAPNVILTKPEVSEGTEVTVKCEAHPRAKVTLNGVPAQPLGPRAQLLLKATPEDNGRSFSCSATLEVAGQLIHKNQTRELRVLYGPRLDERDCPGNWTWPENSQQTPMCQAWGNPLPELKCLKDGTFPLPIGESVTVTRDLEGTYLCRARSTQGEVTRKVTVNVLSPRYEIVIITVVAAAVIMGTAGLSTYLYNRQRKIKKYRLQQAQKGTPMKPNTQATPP

`CC(C)C[C@@H](NC(=O)[C@H](N)CC(=O)O)C(=O)N[C@H](CO)C(=O)N[C@H](Cc1ccc(O)cc1)C(=O)N[C@H](CO)C(=O)N[C@H](CC(C)C)C(=O)N[C@H](CC(=O)O)C(=O)N[C@H](CC(=O)O)C(=O)N[C@H](CC(C)C)C(=O)N[C@H](CCCNC(=N)N)C(=O)O` [D-LBEL, H-DLSYSLDDLR-OH] (H-[dD][dL][dS][dY][dS][dL][dD][dD][dL][dR]-OH): in assay [1], the “inhibiting T-cell proliferation in MLR assays” value was “significantly effective” and the “inhibitory effect on T-cell proliferation” value (shortened to “inhibitory effect”) is “amazing inhibitory effect, which was much more effective than either LBE or cLBEL”.

As for `CC(C)C[C@@H]1NC(=O)[C@H](CCCCN)NC(=O)[C@H](CCCCN)NC(=O)[C@H](C(C)C)NC(=O)[C@H](CC(N)=O)NC(=O)[C@H](CCCNC(=N)N)NC(=O)[C@H](CC(C)C)NC(=O)[C@H](CC(=O)O)NC(=O)[C@@H](N)C(C)(C)SSC[C@@H](C(N)=O)NC(=O)CNC(=O)CNC1=O` [cLBEC, H-PenDLRNVKKLGGC-NH2] (H-[Pen]DLRNVKKLGGC-NH2; disulfide 1-12), the “effectiveness in inhibiting responder T-cell proliferation” value in assay [1] is given as “more effective than LBE”.

Take `CC(C)C[C@@H]1NC(=O)[C@H](CC(=O)O)NC(=O)[C@H](CC(=O)O)NC(=O)[C@H](CC(C)C)NC(=O)[C@H](CO)NC(=O)[C@H](Cc2ccc(O)cc2)NC(=O)[C@H](CO)NC(=O)[C@H](CC(C)C)NC(=O)[C@H](CC(=O)O)NC(=O)[C@@H](N)C(C)(C)SSC[C@@H](C(N)=O)NC(=O)[C@H](CCCNC(=N)N)NC1=O` [cLBEL, H-PenDLSYSLDDLRC-NH2] (H-[Pen]DLSYSLDDLRC-NH2; disulfide 1-12): the “effectiveness in inhibiting responder T-cell proliferation” value in assay [1] is given as “more effective than LBE”.

With “H-DLRNVKKLGG-H (H-[dD][dL][dR][dN][dV][dK][dK][dL]GG; not fully specified; also: C-terminus written -H) [D-LBEC]”, the “inhibitory effect” value in assay [1] is “did not show any inhibitory effects”. In addition, the “Inhibition of T-cell Proliferation (%)” value in assay [1] (setting [3]) is −47.6(*4) %.

As for “H-GGDLLRALNE-OH (H-GG[dD][dL][dL][dR][dA][dL][dN][dE]-OH) [D-LBER]”, the “inhibitory effect” value in assay [1] is listed as “lost the biological function to inhibit T-cell proliferation”. Also, the “Inhibition of T-cell Proliferation (%)” value in assay [1] (setting [3]) is recorded as −90.5(*4) %.

Consider “LBEL: linear L-peptide of Table 2, sequence not printed (DLSYSLDDLR)”, for which the “Inhibition of T-cell Proliferation (%)” value in assay [1] (linear L-peptides (*1), second value of cell 'x/y') is “N.D./24.8%”.

B1: D-LBEL (peptide)
peptide: H-[dD][dL][dS][dY][dS][dL][dD][dD][dL][dR]-OH
SMILES: CC(C)C[C@@H](NC(=O)[C@H](N)CC(=O)O)C(=O)N[C@H](CO)C(=O)N[C@H](Cc1ccc(O)cc1)C(=O)N[C@H](CO)C(=O)N[C@H](CC(C)C)C(=O)N[C@H](CC(=O)O)C(=O)N[C@H](CC(=O)O)C(=O)N[C@H](CC(C)C)C(=O)N[C@H](CCCNC(=N)N)C(=O)O
On to B1, for which, in assay [2], the “Inhibition of T-cell Proliferation (%) in mixed lymphocyte reaction, peptide at 500 µM” value worked out at 56.5%.

B2: cLBEL (peptide)
peptide: H-[Pen]DLSYSLDDLRC-NH2
modifications: disulfide 1-12
SMILES: CC(C)C[C@@H]1NC(=O)[C@H](CC(=O)O)NC(=O)[C@H](CC(=O)O)NC(=O)[C@H](CC(C)C)NC(=O)[C@H](CO)NC(=O)[C@H](Cc2ccc(O)cc2)NC(=O)[C@H](CO)NC(=O)[C@H](CC(C)C)NC(=O)[C@H](CC(=O)O)NC(=O)[C@@H](N)C(C)(C)SSC[C@@H](C(N)=O)NC(=O)[C@H](CCCNC(=N)N)NC1=O
Turning to B2, in assay [2], the “Inhibition of T-cell Proliferation (%) in mixed lymphocyte reaction, peptide at 500 µM” value is 18%.

B3: D-LBER (peptide)
peptide: H-GG[dD][dL][dL][dR][dA][dL][dN][dE]-OH
SMILES: CC(C)C[C@@H](NC(=O)[C@@H](C)NC(=O)[C@@H](CCCNC(=N)N)NC(=O)[C@@H](CC(C)C)NC(=O)[C@@H](CC(C)C)NC(=O)[C@@H](CC(=O)O)NC(=O)CNC(=O)CN)C(=O)N[C@H](CC(N)=O)C(=O)N[C@H](CCC(=O)O)C(=O)O
For B3, the “Inhibition of T-cell Proliferation (%) in mixed lymphocyte reaction, peptide at 500 µM” value in assay [2] is -90.5%.

B4: D-LBEC (peptide)
peptide: H-[dD][dL][dR][dN][dV][dK][dK][dL]GG
modifications: not fully specified (C-terminus)
B4: the “Inhibition of T-cell Proliferation (%) in mixed lymphocyte reaction, peptide at 500 µM” value in assay [2] is -47.6%.

B5: LBEL (linear L-peptide) (peptide)
peptide: DLSYSLDDLR
For B5, the “Inhibition of T-cell Proliferation (%) in mixed lymphocyte reaction, peptide at 500 µM” value in assay [2] turned out to be 24.8%.

B6: cLBEC (peptide)
peptide: H-[Pen]DLRNVKKLGGC-NH2
modifications: disulfide 1-12
SMILES: CC(C)C[C@@H]1NC(=O)[C@H](CCCCN)NC(=O)[C@H](CCCCN)NC(=O)[C@H](C(C)C)NC(=O)[C@H](CC(N)=O)NC(=O)[C@H](CCCNC(=N)N)NC(=O)[C@H](CC(C)C)NC(=O)[C@H](CC(=O)O)NC(=O)[C@@H](N)C(C)(C)SSC[C@@H](C(N)=O)NC(=O)CNC(=O)CNC1=O
Regarding B6, the “Inhibition of T-cell Proliferation (%) in mixed lymphocyte reaction, peptide at 500 µM” value in assay [2] came out at 18%.

Source of the values: patent US6599506B1, “D-form polypeptide that inhibits the interaction between LFA-1 and ICAM-1” (The University of Kansas, priority 1999, dated 2003).
